Read-outs that look alike come from different tables or passages of the source.
Tested on: C. elegans
Assay: microbe, parasite or virus in culture
Conditions: Caenorhabditis elegans
[1] = 0 h, read-out: Percentage of motility inhibition 0 h, Table S2, C. elegans SS assay, 110 μM, 0 h, averages of 4 data points
[2] = 24 h, read-out: Percentage of motility inhibition 24 h, Table S2, C. elegans SS assay, 110 μM, 24 h, averages of 4 data points
[3] = 0 h, read-out: Percentage of motility inhibition 0 h
[4] = 24 h, read-out: Percentage of motility inhibition 24 h

SMILES | inhibition at 110 µM [1] [%] | inhibition at 110 µM [2] [%] | inhibition at 110 µM [3] [%] | inhibition at 110 µM [4] [%]
CC(C)=CCC[C@](C)(O[C@@H]1O[C@H](CO[C@@H]2OC[C@H](O)[C@H](O)[C@H]2O)[C@@H](O)[C@H](O)[C@H]1O)[C@H]1CC[C@]2(C)[C@@H]1[C@H](O)C[C@@H]1[C@@]3(C)CC[C@H](O[C@@H]4O[C@H](CO)[C@@H](O)[C@H](O)[C@H]4O[C@@H]4O[C@H](CO)[C@@H](O)[C@H](O)[C@H]4O)C(C)(C)[C@@H]3CC[C@]12C [Ginsenoside Rb2] | 7 | 0 | – | –
COc1ccc(-c2cc(=O)c3c(O)c(OC)c(OC)cc3o2)cc1O [Eupatorin] | 7 | 26 | – | –
COc1ccc(-c2oc3c(CC=C(C)C)c(O)cc(O)c3c(=O)c2O)cc1 [Icaritin] | 0 | 2 | – | –
COc1ccc(-c2cc(=O)c3c(OC)c(OC)c(OC)cc3o2)cc1OC [Sinensetin] | 0 | 0 | – | –
CCC(=O)c1c(O)cc(O)cc1O [Flopropione] | 40 | 18 | – | –
C=C1CC/C=C(\C)CC[C@@H]2[C@@H]1CC2(C)C [β-Caryophyllene] | 28 | 27 | – | –
COc1ccc(-c2cc(=O)c3c(OC)c(OC)c(OC)c(OC)c3o2)cc1 [Tangeretin] | 14 | 8 | – | –
Nc1ncnc2[nH]cnc12 [Adenine] | – | – | 0 | 3
c1cncc(C2=NCCC2)c1 [Myosmine] | 18 | 24 | – | –
C[n+]1cccc(C(=O)[O-])c1 [Trigonelline] | 0 | 0 | – | –
O=C1C=CC(=O)N1 [Maleimide] | 25 | 32 | – | –
CC(=O)O[C@@H]1C(=O)C2=C(C(=O)C[C@H]3C(C)(C)C(=O)CC[C@]23C)[C@]2(C)C(=O)C[C@H]([C@H](C)CC(=O)CC(C)C(=O)O)[C@@]12C (stereo partly drawn) [Ganoderic acid F] | 14 | 2 | – | –
CC(C)=CCC/C(C)=C/Cc1c(O)c(CC=C(C)C)c2c(c1O)C(=O)C1=C[C@@H]3C[C@H]4C(C)(C)O[C@@](C/C=C(/C)C(=O)O)(C3=O)[C@@]14O2 [Gambogenic acid] | 1 | 8 | – | –
O=C(/C=C/C=C/c1ccc2c(c1)OCO2)N1CCCCC1 [Piperine] | 0 | 21 | – | –
CC(C)(CO)[C@@H](O)C(=O)NCCC(=O)O [D-Pantothenic acid] | 9 | 10 | – | –
O=c1c(O)cc([C@H]2Oc3cc(O)cc(O)c3C[C@H]2O)cc2c([C@H]3Oc4cc(O)cc(O)c4C[C@H]3O)cc(O)c(O)c12 [Theaflavin] | 11 | 5 | – | –
CC(=O)NC[C@H]1CN(c2ccc(N3CCSCC3)c(F)c2)C(=O)O1 [Sutezolid] | 16 | 4 | – | –
COc1ncnc(NS(=O)(=O)c2ccc(N)cc2)c1OC [Sulfadoxine] | 18 | 5 | – | –
C[C@@H]1[C@H]2[C@H](O[C@@H]3O[C@H](CO)[C@@H](O)[C@H](O)[C@H]3O)OC=C(C(=O)O)[C@H]2C[C@@H]1O [Loganic acid] | 28 | 29 | – | –
C[C@H]1CC[C@@H]2[C@@H](C)[C@H]3[C@H](C[C@H]4[C@@H]5CC=C6C[C@@H](O)CC[C@]6(C)[C@H]5CC[C@]34C)N2C1 [Solanidine] | 0 | 0 | – | –
CO[C@H]1/C=C/O[C@@]2(C)Oc3c(C)c(O)c4c(O)c(c(/C=N/N5CCN(C)CC5)c(O)c4c3C2=O)NC(=O)/C(C)=C\C=C\[C@H](C)[C@H](O)[C@@H](C)[C@@H](O)[C@@H](C)[C@H](OC(C)=O)[C@@H]1C [Rifampicin] | 13 | 4 | – | –

SMILES | inhibition at 110 µM [1] [%] | inhibition at 110 µM [2] [%] | inhibition at 110 µM [3] [%] | inhibition at 110 µM [4] [%]
O=C(O)CC(O)C(=O)O (stereo not drawn) [Malic acid] | 2 | 14 | – | –
COC(=O)Nc1nc2ccccc2[nH]1 [Carbendazim] | 18 | 7 | – | –
CSCC1CN(/N=C/c2ccc([N+](=O)[O-])o2)C(=O)O1 (stereo not drawn) [Nifuratel] | 0 | 4 | – | –
COc1cc(O)c2c(=O)cc(-c3ccc(O)cc3)oc2c1 [Genkwanin] | 34 | 4 | – | –
C/C=C1\[C@H]2C=C(C)C[C@]1(N)c1ccc(=O)[nH]c1C2 [(‐)‐Huperzine A] | 0 | 4 | – | –
CC1=C(/C=C/C(C)=C/C=C/C(C)=C/C(=O)O)C(C)(C)CCC1 [Retinoic acid] | 18 | 40 | – | –
COc1ccc([C@@H]2CC(=O)c3c(O)cc(O)cc3O2)cc1O [Hesperetin] | 21 | 5 | – | –
CC1OC(OCC2OC(Oc3c(-c4ccc(O)cc4)oc4cc(OC5OC(C)C(O)C(O)C5O)cc(O)c4c3=O)C(O)C(O)C2O)C(O)C(O)C1O (stereo not drawn) [Robinin] | 31 | 8 | – | –
Cc1cncc(C)n1 [2,6‐Dimethylpyrazine] | 0 | 0 | – | –
COc1ccc(C(=O)/C=C/c2ccccc2)cc1 [4'‐Methoxychalcone] | – | – | 0 | 5
CC(=O)OC(C)(C)/C=C/C(=O)[C@](C)(O)[C@H]1[C@H](O)C[C@@]2(C)[C@@H]3CC=C4[C@@H](C=C(O)C(=O)C4(C)C)[C@]3(C)C(=O)C[C@]12C [Cucurbitacin E] | 0 | 11 | – | –
C/C=C(/C)C(=O)O[C@H]1[C@H](OC(C)=O)[C@]2(CO)[C@H](O)C[C@]3(C)C(=CC[C@@H]4[C@@]5(C)CC[C@H](O[C@@H]6O[C@H](C(=O)O)[C@@H](O[C@@H]7O[C@H](CO)[C@@H](O)[C@H](O)[C@H]7O)[C@H](O)[C@H]6O[C@@H]6O[C@H](CO)[C@@H](O)[C@H](O)[C@H]6O)[C@](C)(CO)[C@@H]5CC[C@]43C)[C@@H]2CC1(C)C [Escin IB] | 0 | 0 | – | –
C[C@H](CCC(=O)O)[C@H]1CC[C@H]2[C@@H]3[C@H](O)C[C@@H]4C[C@H](O)CC[C@]4(C)[C@H]3C[C@H](O)[C@]12C [Cholic acid] | – | – | 0 | 8
C[C@H]1[C@H](C)CC[C@]2(CO)CC[C@]3(C)C(=CC[C@@H]4[C@@]5(C)CC[C@H](O)C(C)(C)[C@@H]5CC[C@]43C)[C@H]12 [Uvaol] | 19 | 2 | – | –
C[C@]12CC[C@@H]3c4ccc(O)cc4CC[C@H]3[C@@H]1CCC2=O [Estrone] | 32 | 0 | – | –
OC[C@H]1O[C@@H](Oc2ccc(O)cc2)[C@H](O)[C@@H](O)[C@@H]1O [Arbutin] | 0 | 1 | – | –
CN1CCc2cc3c(c4c2C1Cc1ccccc1-4)OCO3 (stereo not drawn) [Roemerine] | 0 | 0 | – | –
CC[C@]12CCCN3CCc4c(n(c5ccccc45)C(=O)C1)[C@@H]32 [Vinburnine] | 0 | – | – | –
Nc1nc(=O)c2nc(CNc3ccc(C(=O)N[C@@H](CCC(=O)O)C(=O)O)cc3)cnc2[nH]1 [Folic acid] | 23 | 17 | – | –
NC(=O)NC1NC(=O)NC1=O (stereo not drawn) [Allantoin] | 0 | 13 | – | –
